Reference: PubChem BioAssay (NCI)
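Values below derive from 48-hour exposures of cells grown in 96-well plates, with endpoints linearly interpolated between the two concentrations bracketing the appropriate inhibition level. TGI: total growth inhibition.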

What was measured:
Assay in all cases: NCI-60 cell line screen, 48 h
SW-620 colon = tested on: SW-620 colon
KM20L2 colon = tested on: KM20L2 colon
MALME-3M melanoma = tested on: MALME-3M melanoma
HOP-92 NSCLC = tested on: HOP-92 NSCLC
XF 498 CNS = tested on: XF 498 CNS
NCI-H23 lung = tested on: NCI-H23 lung
IGROV1 ovarian = tested on: IGROV1 ovarian
SF-539 CNS = tested on: SF-539 CNS
HOP-62 NSCLC = tested on: HOP-62 NSCLC
A549 NSCLC = tested on: A549 NSCLC
OVCAR-3 ovarian = tested on: OVCAR-3 ovarian
RPMI-8226 leukemia = tested on: RPMI-8226 leukemia
SK-MEL-28 melanoma = tested on: SK-MEL-28 melanoma
OVCAR-5 ovarian = tested on: OVCAR-5 ovarian
KM12 colon = tested on: KM12 colon
UACC-257 melanoma = tested on: UACC-257 melanoma
NCI-H226 lung = tested on: NCI-H226 lung
HL-60(TB) leukemia = tested on: HL-60(TB) leukemia
SK-MEL-5 melanoma = tested on: SK-MEL-5 melanoma
RXF-631 renal = tested on: RXF-631 renal
SR leukemia = tested on: SR leukemia
SF-268 CNS = tested on: SF-268 CNS
SK-MEL-2 melanoma = tested on: SK-MEL-2 melanoma
UACC-62 melanoma = tested on: UACC-62 melanoma
M19-MEL melanoma = tested on: M19-MEL melanoma
DMS 273 small cell lung = tested on: DMS 273 small cell lung
SN12C renal = tested on: SN12C renal
LOX IMVI melanoma = tested on: LOX IMVI melanoma
RXF 393 renal = tested on: RXF 393 renal
CAKI-1 renal = tested on: CAKI-1 renal
K-562 leukemia = tested on: K-562 leukemia
SNB-19 CNS = tested on: SNB-19 CNS
UO-31 renal = tested on: UO-31 renal
LXFL 529 NSCLC = tested on: LXFL 529 NSCLC
SF-295 CNS = tested on: SF-295 CNS
SNB-78 CNS = tested on: SNB-78 CNS
ACHN renal = tested on: ACHN renal
HCT-15 colon = tested on: HCT-15 colon
M14 melanoma = tested on: M14 melanoma
HOP-18 NSCLC = tested on: HOP-18 NSCLC
U251 CNS = tested on: U251 CNS
HT29 colon = tested on: HT29 colon
COLO 205 colon = tested on: COLO 205 colon
OVCAR-4 ovarian = tested on: OVCAR-4 ovarian
NCI-H460 lung = tested on: NCI-H460 lung
SNB-75 CNS = tested on: SNB-75 CNS
HCT-116 colon = tested on: HCT-116 colon
MOLT-4 leukemia = tested on: MOLT-4 leukemia
SK-OV-3 ovarian = tested on: SK-OV-3 ovarian
DLD-1 colon = tested on: DLD-1 colon
NCI-H522 lung = tested on: NCI-H522 lung
CCRF-CEM leukemia = tested on: CCRF-CEM leukemia
A498 renal = tested on: A498 renal
OVCAR-8 ovarian = tested on: OVCAR-8 ovarian
HCC-2998 colon = tested on: HCC-2998 colon
TK-10 renal = tested on: TK-10 renal
EKVX NSCLC = tested on: EKVX NSCLC
786-0 renal = tested on: 786-0 renal
DMS 114 small cell lung = tested on: DMS 114 small cell lung

**Q.** Which results are given for `CCOC(=O)c1csc(CCCCCCc2nc(C(=O)OCC)cs2)n1`?
**A.** TGI (SW-620 colon): > 65.4 µM; TGI (KM20L2 colon): > 100 µM; TGI (MALME-3M melanoma): > 100 µM; TGI (HOP-92 NSCLC): > 100 µM; TGI (XF 498 CNS): 86.3 µM; TGI (NCI-H23 lung): 99.7 µM; TGI (IGROV1 ovarian): > 100 µM; TGI (SF-539 CNS): > 88 µM; TGI (HOP-62 NSCLC): > 89.1 µM; TGI (A549 NSCLC): > 66.5 µM; TGI (OVCAR-3 ovarian): > 100 µM; TGI (RPMI-8226 leukemia): > 69.2 µM; TGI (SK-MEL-28 melanoma): > 83.8 µM; TGI (OVCAR-5 ovarian): > 100 µM; TGI (KM12 colon): > 100 µM; TGI (UACC-257 melanoma): 96.9 µM; TGI (NCI-H226 lung): 97.5 µM; TGI (HL-60(TB) leukemia): > 65.4 µM; TGI (SK-MEL-5 melanoma): > 100 µM; TGI (RXF-631 renal): > 100 µM; TGI (SR leukemia): > 100 µM; TGI (SF-268 CNS): > 100 µM; TGI (SK-MEL-2 melanoma): > 100 µM; TGI (UACC-62 melanoma): > 100 µM; TGI (M19-MEL melanoma): 57.5 µM; TGI (DMS 273 small cell lung): > 100 µM; TGI (SN12C renal): > 100 µM; TGI (LOX IMVI melanoma): > 54.5 µM; TGI (RXF 393 renal): 64 µM; TGI (CAKI-1 renal): > 100 µM; TGI (K-562 leukemia): > 62 µM; TGI (SNB-19 CNS): > 100 µM; TGI (UO-31 renal): > 100 µM; TGI (LXFL 529 NSCLC): > 100 µM; TGI (SF-295 CNS): > 100 µM; TGI (SNB-78 CNS): > 100 µM; TGI (ACHN renal): > 100 µM; TGI (HCT-15 colon): > 100 µM; TGI (M14 melanoma): > 100 µM; TGI (HOP-18 NSCLC): > 100 µM; TGI (U251 CNS): > 59.6 µM; TGI (HT29 colon): > 100 µM; TGI (COLO 205 colon): 98.1 µM; TGI (OVCAR-4 ovarian): > 100 µM; TGI (NCI-H460 lung): > 57.7 µM; TGI (SNB-75 CNS): 70.4 µM; TGI (HCT-116 colon): > 52.3 µM; TGI (MOLT-4 leukemia): > 100 µM; TGI (SK-OV-3 ovarian): > 100 µM; TGI (DLD-1 colon): > 100 µM; TGI (NCI-H522 lung): > 100 µM; TGI (CCRF-CEM leukemia): > 63.9 µM; TGI (A498 renal): > 100 µM; TGI (OVCAR-8 ovarian): > 87.2 µM; TGI (HCC-2998 colon): > 100 µM; TGI (TK-10 renal): > 100 µM; TGI (EKVX NSCLC): > 100 µM; TGI (786-0 renal): > 56.7 µM

**Q.** `COc1ccc2c(c1)C1C(CO2)C(c2ccccc2)=NN1c1ccccc1` (stereo not drawn) was tested. Which TGI (SW-620 colon) did it give?
**A.** The TGI was > 100 µM.

**Q.** What about the TGI (KM20L2 colon) of the same compound?
**A.** Its TGI is > 100 µM.

**Q.** What about the TGI (MALME-3M melanoma) of the same compound?
**A.** The TGI was > 100 µM.

**Q.** And the TGI (HOP-92 NSCLC)?
**A.** Its TGI is > 100 µM.

**Q.** What about the TGI (XF 498 CNS) of the same compound?
**A.** The TGI was > 100 µM.

**Q.** What about the TGI (NCI-H23 lung) of the same compound?
**A.** Its TGI is > 100 µM.

**Q.** What about the TGI (IGROV1 ovarian) of the same compound?
**A.** The TGI was > 100 µM.

**Q.** And the TGI (SF-539 CNS)?
**A.** Its TGI is > 100 µM.

**Q.** What about the TGI (HOP-62 NSCLC) of the same compound?
**A.** Its TGI is > 100 µM.

**Q.** And the TGI (A549 NSCLC)?
**A.** The TGI was > 100 µM.

**Q.** And the TGI (OVCAR-3 ovarian)?
**A.** The TGI was > 100 µM.

**Q.** What about the TGI (RPMI-8226 leukemia) of the same compound?
**A.** Its TGI is > 100 µM.

**Q.** And the TGI (SK-MEL-28 melanoma)?
**A.** Its TGI is > 100 µM.

**Q.** And the TGI (OVCAR-5 ovarian)?
**A.** The TGI was > 100 µM.

**Q.** And the TGI (KM12 colon)?
**A.** The TGI was > 100 µM.

**Q.** What about the TGI (UACC-257 melanoma) of the same compound?
**A.** Its TGI is > 100 µM.

**Q.** What about the TGI (HL-60(TB) leukemia) of the same compound?
**A.** The TGI was > 100 µM.

**Q.** And the TGI (SK-MEL-5 melanoma)?
**A.** The TGI was > 100 µM.

**Q.** What about the TGI (RXF-631 renal) of the same compound?
**A.** Its TGI is > 100 µM.

**Q.** What about the TGI (DMS 114 small cell lung) of the same compound?
**A.** The TGI was > 100 µM.

**Q.** What about the TGI (SF-268 CNS) of the same compound?
**A.** The TGI was > 100 µM.

**Q.** And the TGI (SK-MEL-2 melanoma)?
**A.** Its TGI is > 100 µM.

**Q.** What about the TGI (M19-MEL melanoma) of the same compound?
**A.** Its TGI is > 100 µM.

**Q.** What about the TGI (DMS 273 small cell lung) of the same compound?
**A.** The TGI was > 100 µM.

**Q.** And the TGI (LOX IMVI melanoma)?
**A.** The TGI was > 100 µM.

**Q.** What about the TGI (RXF 393 renal) of the same compound?
**A.** The TGI was > 100 µM.

**Q.** And the TGI (K-562 leukemia)?
**A.** The TGI was > 100 µM.

**Q.** And the TGI (UO-31 renal)?
**A.** Its TGI is > 100 µM.

**Q.** What about the TGI (LXFL 529 NSCLC) of the same compound?
**A.** Its TGI is > 100 µM.

**Q.** And the TGI (SF-295 CNS)?
**A.** Its TGI is > 100 µM.

**Q.** What about the TGI (SNB-78 CNS) of the same compound?
**A.** The TGI was > 100 µM.

**Q.** What about the TGI (ACHN renal) of the same compound?
**A.** The TGI was > 100 µM.

**Q.** What about the TGI (HOP-18 NSCLC) of the same compound?
**A.** The TGI was > 100 µM.

**Q.** And the TGI (U251 CNS)?
**A.** The TGI was > 100 µM.

**Q.** What about the TGI (HT29 colon) of the same compound?
**A.** The TGI was > 100 µM.

**Q.** What about the TGI (COLO 205 colon) of the same compound?
**A.** The TGI was > 100 µM.

**Q.** And the TGI (NCI-H460 lung)?
**A.** The TGI was > 100 µM.

**Q.** What about the TGI (SNB-75 CNS) of the same compound?
**A.** The TGI was 9.67 µM.

**Q.** What about the TGI (HCT-116 colon) of the same compound?
**A.** The TGI was > 100 µM.

**Q.** And the TGI (MOLT-4 leukemia)?
**A.** Its TGI is > 100 µM.

**Q.** And the TGI (SK-OV-3 ovarian)?
**A.** Its TGI is > 100 µM.

**Q.** What about the TGI (DLD-1 colon) of the same compound?
**A.** Its TGI is > 100 µM.

**Q.** And the TGI (NCI-H522 lung)?
**A.** The TGI was > 100 µM.

**Q.** What about the TGI (CCRF-CEM leukemia) of the same compound?
**A.** Its TGI is > 100 µM.

**Q.** What about the TGI (A498 renal) of the same compound?
**A.** Its TGI is > 100 µM.

**Q.** And the TGI (OVCAR-8 ovarian)?
**A.** The TGI was > 100 µM.

**Q.** And the TGI (HCC-2998 colon)?
**A.** The TGI was > 100 µM.

**Q.** What about the TGI (TK-10 renal) of the same compound?
**A.** The TGI was > 100 µM.

**Q.** And the TGI (EKVX NSCLC)?
**A.** The TGI was > 100 µM.

**Q.** What about the TGI (786-0 renal) of the same compound?
**A.** Its TGI is > 100 µM.
